Measurements from PubChem BioAssay (NCI).
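Test compounds were applied to cells in 96-well plates for 48 hours at 5 doses. Here, GI50 denotes the concentration required for 50% inhibition of growth. TGI marks complete inhibition of growth.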

What was measured:
Test in all cases: inhibition of tumour cell growth, NCI panel, 48 h
HOP-92 NSCLC = system: HOP-92 NSCLC
UACC-62 melanoma = system: UACC-62 melanoma
NCI-H23 lung = system: NCI-H23 lung
A549 NSCLC = system: A549 NSCLC
K-562 leukemia = system: K-562 leukemia
T-47D breast = system: T-47D breast
NCI-H522 lung = system: NCI-H522 lung
MDA-MB-231 breast = system: MDA-MB-231 breast
ACHN renal = system: ACHN renal
MOLT-4 leukemia = system: MOLT-4 leukemia
HCT-15 colon = system: HCT-15 colon
MALME-3M melanoma = system: MALME-3M melanoma
SW-620 colon = system: SW-620 colon
SNB-19 CNS = system: SNB-19 CNS
TK-10 renal = system: TK-10 renal
NCI-H460 lung = system: NCI-H460 lung
MDA-MB-435 = system: MDA-MB-435
SN12C renal = system: SN12C renal
RPMI-8226 leukemia = system: RPMI-8226 leukemia
HOP-62 NSCLC = system: HOP-62 NSCLC
SF-268 CNS = system: SF-268 CNS
HT29 colon = system: HT29 colon
SK-MEL-2 melanoma = system: SK-MEL-2 melanoma
HCC-2998 colon = system: HCC-2998 colon
U251 CNS = system: U251 CNS
KM12 colon = system: KM12 colon
A498 renal = system: A498 renal
SF-295 CNS = system: SF-295 CNS
OVCAR-5 ovarian = system: OVCAR-5 ovarian
RXF 393 renal = system: RXF 393 renal
BT-549 breast = system: BT-549 breast
M14 melanoma = system: M14 melanoma
EKVX NSCLC = system: EKVX NSCLC
HCT-116 colon = system: HCT-116 colon
NCI/ADR-RES ovarian = system: NCI/ADR-RES ovarian
786-0 renal = system: 786-0 renal
SK-OV-3 ovarian = system: SK-OV-3 ovarian
PC-3 prostate = system: PC-3 prostate
NCI-H226 lung = system: NCI-H226 lung
CCRF-CEM leukemia = system: CCRF-CEM leukemia
CAKI-1 renal = system: CAKI-1 renal
LOX IMVI melanoma = system: LOX IMVI melanoma
SK-MEL-28 melanoma = system: SK-MEL-28 melanoma
IGROV1 ovarian = system: IGROV1 ovarian
HL-60(TB) leukemia = system: HL-60(TB) leukemia
SK-MEL-5 melanoma = system: SK-MEL-5 melanoma
SR leukemia = system: SR leukemia
UO-31 renal = system: UO-31 renal
MCF7 breast = system: MCF7 breast
OVCAR-8 ovarian = system: OVCAR-8 ovarian
UACC-257 melanoma = system: UACC-257 melanoma
OVCAR-3 ovarian = system: OVCAR-3 ovarian
OVCAR-4 ovarian = system: OVCAR-4 ovarian
SNB-75 CNS = system: SNB-75 CNS
COLO 205 colon = system: COLO 205 colon

For `CC[C@]12C=CCN3CC[C@]4(C(=C(C(=O)OC)C1)Nc1cc(OC)c(OC(C)=O)cc14)[C@@H]32`, the GI50 (HOP-92 NSCLC) was 247 nM, the TGI (HOP-92 NSCLC) was 10300 nM and the GI50 (UACC-62 melanoma) was 326 nM. It also gave a TGI (UACC-62 melanoma) of 3080 nM, a GI50 (NCI-H23 lung) of 395 nM and a TGI (NCI-H23 lung) of 18800 nM. It also gave a GI50 (A549 NSCLC) of 397 nM, a TGI (A549 NSCLC) of 19000 nM and a GI50 (K-562 leukemia) of 274 nM. For the same molecule, the TGI (K-562 leukemia) was 15400 nM, the GI50 (T-47D breast) was 1420 nM and the TGI (T-47D breast) was 17800 nM. For the same molecule, the GI50 (NCI-H522 lung) was 81.9 nM, the TGI (NCI-H522 lung) was 1040 nM and the GI50 (MDA-MB-231 breast) was 389 nM. It also gave a TGI (MDA-MB-231 breast) of 14500 nM, a GI50 (ACHN renal) of 176 nM and a TGI (ACHN renal) of 2620 nM. The GI50 (MOLT-4 leukemia) was 383 nM, the TGI (MOLT-4 leukemia) was 14900 nM and the GI50 (HCT-15 colon) was 310 nM. The TGI (HCT-15 colon) was 1560 nM, the GI50 (MALME-3M melanoma) was 1420 nM and the TGI (MALME-3M melanoma) was 16100 nM. For the same molecule, the GI50 (SW-620 colon) was 319 nM, the TGI (SW-620 colon) was 10500 nM and the GI50 (SNB-19 CNS) was 591 nM. The TGI (SNB-19 CNS) was 21500 nM, the GI50 (TK-10 renal) was 1020 nM and the TGI (TK-10 renal) was 7510 nM. It also gave a GI50 (NCI-H460 lung) of 360 nM, a TGI (NCI-H460 lung) of 11600 nM and a GI50 (MDA-MB-435) of 100 nM. The TGI (MDA-MB-435) was 319 nM, the GI50 (SN12C renal) was 530 nM and the TGI (SN12C renal) was 14800 nM. The GI50 (RPMI-8226 leukemia) was 478 nM, the TGI (RPMI-8226 leukemia) was 12300 nM and the GI50 (HOP-62 NSCLC) was 400 nM. For the same molecule, the TGI (HOP-62 NSCLC) was 14100 nM, the GI50 (SF-268 CNS) was 399 nM and the TGI (SF-268 CNS) was 13200 nM. It also gave a GI50 (HT29 colon) of 1860 nM, a TGI (HT29 colon) of 11000 nM and a GI50 (SK-MEL-2 melanoma) of 689 nM. The TGI (SK-MEL-2 melanoma) was 23000 nM, the GI50 (HCC-2998 colon) was 416 nM and the TGI (HCC-2998 colon) was 6790 nM. The GI50 (U251 CNS) was 386 nM, the TGI (U251 CNS) was 12000 nM and the GI50 (KM12 colon) was 303 nM. The TGI (KM12 colon) was 2640 nM, the GI50 (A498 renal) was 133 nM and the TGI (A498 renal) was 718 nM. The GI50 (SF-295 CNS) was 377 nM, the TGI (SF-295 CNS) was 14600 nM and the GI50 (OVCAR-5 ovarian) was 719 nM. For the same molecule, the TGI (OVCAR-5 ovarian) was 16200 nM, the GI50 (RXF 393 renal) was 389 nM and the TGI (RXF 393 renal) was 8880 nM. It also gave a GI50 (BT-549 breast) of 244 nM, a TGI (BT-549 breast) of 674 nM and a GI50 (M14 melanoma) of 181 nM. The TGI (M14 melanoma) was 684 nM, the GI50 (EKVX NSCLC) was 625 nM and the TGI (EKVX NSCLC) was 19300 nM. For the same molecule, the GI50 (HCT-116 colon) was 275 nM, the TGI (HCT-116 colon) was 1380 nM and the GI50 (NCI/ADR-RES ovarian) was 339 nM. The TGI (NCI/ADR-RES ovarian) was 89900 nM, the GI50 (786-0 renal) was 318 nM and the TGI (786-0 renal) was 10000 nM. The GI50 (SK-OV-3 ovarian) was 325 nM, the TGI (SK-OV-3 ovarian) was 12500 nM and the GI50 (PC-3 prostate) was 384 nM. It also gave a TGI (PC-3 prostate) of 15200 nM, a GI50 (NCI-H226 lung) of 917 nM and a TGI (NCI-H226 lung) of 21900 nM. It also gave a GI50 (CCRF-CEM leukemia) of 380 nM, a TGI (CCRF-CEM leukemia) of 1860 nM and a GI50 (CAKI-1 renal) of 503 nM. The TGI (CAKI-1 renal) was 15600 nM, the GI50 (LOX IMVI melanoma) was 254 nM and the TGI (LOX IMVI melanoma) was 1270 nM. For the same molecule, the GI50 (SK-MEL-28 melanoma) was 1620 nM, the TGI (SK-MEL-28 melanoma) was 12500 nM and the GI50 (IGROV1 ovarian) was 473 nM. For the same molecule, the TGI (IGROV1 ovarian) was 20400 nM, the GI50 (HL-60(TB) leukemia) was 184 nM and the TGI (HL-60(TB) leukemia) was 654 nM. It also gave a GI50 (SK-MEL-5 melanoma) of 209 nM, a TGI (SK-MEL-5 melanoma) of 481 nM and a GI50 (SR leukemia) of 164 nM. For the same molecule, the TGI (SR leukemia) was 11200 nM, the GI50 (UO-31 renal) was 483 nM and the TGI (UO-31 renal) was 5600 nM. For the same molecule, the GI50 (MCF7 breast) was 238 nM, the TGI (MCF7 breast) was 14400 nM and the GI50 (OVCAR-8 ovarian) was 407 nM. For the same molecule, the TGI (OVCAR-8 ovarian) was greater than 100000 nM, the GI50 (UACC-257 melanoma) was 1970 nM and the TGI (UACC-257 melanoma) was 17500 nM. The GI50 (OVCAR-3 ovarian) was 225 nM, the TGI (OVCAR-3 ovarian) was 602 nM and the GI50 (OVCAR-4 ovarian) was 446 nM. It also gave a TGI (OVCAR-4 ovarian) of 17500 nM, a GI50 (SNB-75 CNS) of 308 nM and a TGI (SNB-75 CNS) of 21000 nM. It also gave a GI50 (COLO 205 colon) of 769 nM and a TGI (COLO 205 colon) of 4520 nM.
